Experiments:
hERG channel = hERG channel (Homo sapiens, UniProt Q12809); assay: hERG channel inhibition; format: biochemical; settings: @ 25 μM; < 5% at all tested concentrations (0.008-25.0 μM)
[1] = Microsomal stability, mouse; format: in vitro ADME; settings: mouse microsomes
[2] = Biological stability in mouse plasma; format: in vitro ADME
[3] = Microsomal stability, human; format: in vitro ADME; settings: human microsomes
Exposure = format: in vivo; settings: for CO: IV, dose 0.03 mg, av. weight 27 g; for AUC / Cmax / Tmax / half-life: in vivo, 0.03 mg
Caco2 = assay: PAMPA and Caco2 permeability analyses; format: in vitro ADME; settings: data not shown
[4] = Microsomal stability, rat; format: in vitro ADME; settings: rat microsomes
[5] = Chemical stability as a solution; format: physicochemical; settings: both DMSO-based and aqueous
αIIbβ3 receptor [6] = biological target: T1, αIIbβ3 receptor (Homo sapiens, UniProt P05106+P08514); assay: Platelet aggregation; format: cell-based
phospholipidosis = assay: Drug-induced phospholipidosis; format: cell-based; settings: data not shown
Long-term solubilization = format: physicochemical
αIIbβ3 receptor [7] = biological target: T1, αIIbβ3 receptor; assay: β3 conformation by binding of a conformation-specific monoclonal antibody
αIIbβ3 receptor [8] = biological target: T1, αIIbβ3 receptor; assay: Priming of the receptor for fibrinogen binding; settings: manuscript in preparation
αVβ3 receptor = αVβ3 receptor (Homo sapiens, UniProt P05106+P06756); assay: Activity versus the αVβ3 receptor; settings: manuscript in preparation
Chain of αVβ3 receptor (P06756 31-889 limits assumed): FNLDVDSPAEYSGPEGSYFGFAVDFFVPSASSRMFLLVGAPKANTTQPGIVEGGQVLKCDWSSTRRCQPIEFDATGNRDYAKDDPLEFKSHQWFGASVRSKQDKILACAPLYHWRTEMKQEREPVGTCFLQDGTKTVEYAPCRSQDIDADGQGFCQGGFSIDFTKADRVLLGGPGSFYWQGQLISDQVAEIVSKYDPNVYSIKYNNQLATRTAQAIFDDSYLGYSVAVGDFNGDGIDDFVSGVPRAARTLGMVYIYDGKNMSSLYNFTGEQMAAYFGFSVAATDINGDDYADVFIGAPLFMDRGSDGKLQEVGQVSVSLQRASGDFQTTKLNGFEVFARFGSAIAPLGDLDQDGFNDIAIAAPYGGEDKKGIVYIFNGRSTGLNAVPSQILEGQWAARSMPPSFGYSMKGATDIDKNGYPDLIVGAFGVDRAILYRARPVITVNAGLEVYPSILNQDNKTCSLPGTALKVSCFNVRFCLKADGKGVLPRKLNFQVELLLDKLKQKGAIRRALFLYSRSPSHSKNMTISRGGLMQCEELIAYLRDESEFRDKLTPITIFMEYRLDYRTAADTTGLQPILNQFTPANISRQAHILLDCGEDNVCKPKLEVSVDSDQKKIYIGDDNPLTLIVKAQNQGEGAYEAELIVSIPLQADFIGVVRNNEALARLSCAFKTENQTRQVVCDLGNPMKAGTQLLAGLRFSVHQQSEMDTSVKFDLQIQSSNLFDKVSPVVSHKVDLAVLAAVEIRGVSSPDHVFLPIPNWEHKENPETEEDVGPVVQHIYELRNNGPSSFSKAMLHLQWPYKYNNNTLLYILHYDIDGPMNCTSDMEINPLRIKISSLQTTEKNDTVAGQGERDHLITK
Chain of αVβ3 receptor (P06756 891-1048 partner limits assumed): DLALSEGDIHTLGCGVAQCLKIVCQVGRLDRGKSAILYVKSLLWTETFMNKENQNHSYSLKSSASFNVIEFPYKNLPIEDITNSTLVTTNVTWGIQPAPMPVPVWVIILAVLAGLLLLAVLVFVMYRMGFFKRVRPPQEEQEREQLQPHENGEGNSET
Chain of αVβ3 receptor (P05106 27-788): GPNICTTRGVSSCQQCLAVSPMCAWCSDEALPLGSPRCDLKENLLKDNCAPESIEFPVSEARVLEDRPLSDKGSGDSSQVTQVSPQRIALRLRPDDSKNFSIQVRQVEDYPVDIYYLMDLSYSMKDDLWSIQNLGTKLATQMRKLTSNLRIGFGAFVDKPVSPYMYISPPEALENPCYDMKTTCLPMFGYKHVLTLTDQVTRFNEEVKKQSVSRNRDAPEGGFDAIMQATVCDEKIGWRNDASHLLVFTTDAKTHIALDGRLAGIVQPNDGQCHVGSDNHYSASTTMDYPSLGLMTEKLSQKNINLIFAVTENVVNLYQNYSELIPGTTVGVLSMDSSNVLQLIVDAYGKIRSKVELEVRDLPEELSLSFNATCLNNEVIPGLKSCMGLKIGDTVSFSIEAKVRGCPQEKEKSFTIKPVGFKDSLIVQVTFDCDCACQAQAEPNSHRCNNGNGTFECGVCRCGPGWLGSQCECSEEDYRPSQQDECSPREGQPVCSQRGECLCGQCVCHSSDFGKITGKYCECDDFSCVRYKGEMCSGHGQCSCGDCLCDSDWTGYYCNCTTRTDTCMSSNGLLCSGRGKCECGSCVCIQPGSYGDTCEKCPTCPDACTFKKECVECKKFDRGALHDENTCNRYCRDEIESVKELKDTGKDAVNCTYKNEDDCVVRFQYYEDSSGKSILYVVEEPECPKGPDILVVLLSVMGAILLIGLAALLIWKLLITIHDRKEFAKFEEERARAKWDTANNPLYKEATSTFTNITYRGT

T1 sequence (P08514 32-887 limits assumed): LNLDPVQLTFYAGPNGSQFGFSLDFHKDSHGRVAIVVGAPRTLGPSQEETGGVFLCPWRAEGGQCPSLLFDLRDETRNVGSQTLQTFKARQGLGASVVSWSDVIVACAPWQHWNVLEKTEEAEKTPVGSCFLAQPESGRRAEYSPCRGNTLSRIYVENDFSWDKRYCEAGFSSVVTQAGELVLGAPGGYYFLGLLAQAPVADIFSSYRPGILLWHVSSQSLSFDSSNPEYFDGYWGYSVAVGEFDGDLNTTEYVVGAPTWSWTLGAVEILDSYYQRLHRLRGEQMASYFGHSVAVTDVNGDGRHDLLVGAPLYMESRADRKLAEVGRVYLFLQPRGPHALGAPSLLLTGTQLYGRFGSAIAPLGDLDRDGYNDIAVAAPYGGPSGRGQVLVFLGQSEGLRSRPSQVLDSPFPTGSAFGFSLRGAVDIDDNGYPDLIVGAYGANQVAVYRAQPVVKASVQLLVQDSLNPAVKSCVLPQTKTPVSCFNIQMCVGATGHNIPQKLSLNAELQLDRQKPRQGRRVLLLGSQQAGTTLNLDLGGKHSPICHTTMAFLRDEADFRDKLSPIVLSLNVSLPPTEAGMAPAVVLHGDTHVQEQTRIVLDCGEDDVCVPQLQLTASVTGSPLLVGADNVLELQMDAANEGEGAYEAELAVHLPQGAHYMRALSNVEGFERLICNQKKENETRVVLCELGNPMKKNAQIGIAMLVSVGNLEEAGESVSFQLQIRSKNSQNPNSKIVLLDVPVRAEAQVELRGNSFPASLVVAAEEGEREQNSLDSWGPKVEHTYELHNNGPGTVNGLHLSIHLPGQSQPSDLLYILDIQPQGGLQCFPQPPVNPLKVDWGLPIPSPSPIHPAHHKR
T1 sequence (P08514 891-1039 partner limits assumed): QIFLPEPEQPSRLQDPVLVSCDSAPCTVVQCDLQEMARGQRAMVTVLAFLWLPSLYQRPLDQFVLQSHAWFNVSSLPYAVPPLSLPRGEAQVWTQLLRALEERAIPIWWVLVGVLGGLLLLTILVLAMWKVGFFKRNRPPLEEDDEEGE
T1 sequence (P05106 27-788): as the sequence (P05106 27-788) above
Chain of hERG channel (Q12809 whole entry): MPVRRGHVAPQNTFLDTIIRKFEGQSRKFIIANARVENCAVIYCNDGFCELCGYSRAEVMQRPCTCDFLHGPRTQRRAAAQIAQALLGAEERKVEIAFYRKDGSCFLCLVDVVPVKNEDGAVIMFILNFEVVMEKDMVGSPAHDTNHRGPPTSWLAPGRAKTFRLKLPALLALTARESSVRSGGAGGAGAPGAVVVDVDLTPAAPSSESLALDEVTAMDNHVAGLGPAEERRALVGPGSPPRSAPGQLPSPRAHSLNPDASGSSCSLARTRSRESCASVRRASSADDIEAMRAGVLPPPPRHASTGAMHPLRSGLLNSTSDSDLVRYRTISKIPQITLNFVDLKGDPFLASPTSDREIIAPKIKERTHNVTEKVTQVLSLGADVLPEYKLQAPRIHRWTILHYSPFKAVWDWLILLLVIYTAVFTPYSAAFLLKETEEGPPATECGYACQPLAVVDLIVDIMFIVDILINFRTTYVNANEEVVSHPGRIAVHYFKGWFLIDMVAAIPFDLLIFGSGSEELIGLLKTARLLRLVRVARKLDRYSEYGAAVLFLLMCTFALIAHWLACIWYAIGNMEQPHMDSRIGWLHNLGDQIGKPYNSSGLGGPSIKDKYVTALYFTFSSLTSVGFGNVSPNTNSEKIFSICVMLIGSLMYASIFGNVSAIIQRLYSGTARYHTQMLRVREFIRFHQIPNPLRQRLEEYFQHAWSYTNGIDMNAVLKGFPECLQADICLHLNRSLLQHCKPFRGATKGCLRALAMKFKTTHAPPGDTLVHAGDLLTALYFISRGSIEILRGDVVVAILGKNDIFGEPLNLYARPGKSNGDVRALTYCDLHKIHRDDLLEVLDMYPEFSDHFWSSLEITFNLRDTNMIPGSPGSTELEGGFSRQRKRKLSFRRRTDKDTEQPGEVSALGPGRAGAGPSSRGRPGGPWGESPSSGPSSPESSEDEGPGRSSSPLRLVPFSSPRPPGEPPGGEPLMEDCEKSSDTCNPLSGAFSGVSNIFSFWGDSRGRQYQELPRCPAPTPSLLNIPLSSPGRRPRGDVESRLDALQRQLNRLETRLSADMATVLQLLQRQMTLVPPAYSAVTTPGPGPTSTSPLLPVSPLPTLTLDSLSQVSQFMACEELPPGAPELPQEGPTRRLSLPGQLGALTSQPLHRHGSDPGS

Row | Structure (SMILES) | hERG Inhibition (hERG channel) [% @ 25 μM] | Biological Stability ([2]; 15 min.) | Biological Stability ([2]; 60 min.) | Biological Stability ([2]; 120 min.) | CO (Exposure) [µg/mL] | AUC (Exposure; ip) [ng·h/mL] | Cmax (Exposure; ip) [ng/mL] | Tmax (Exposure; ip) [min] | AUC (Exposure; iv) [ng·h/mL] | half-life (Exposure; iv) [min] | PAMPA and Caco2 permeability analyses (Caco2) | also measured
1 | NCC(=O)Nc1cccc(-c2nn3c(=O)cc(N4CCNCC4)nc3s2)c1 [compound 2] | < 5 | 97.5 (15 min.) | 93.3 (60 min.) | 84.5 (120 min.) | 1.354 | 45 | 222 | 4.8 | 123 | 4.2 | unlikely that either agent possesses high oral bioavailability | t1/2 [1]: > det. limit (mouse); t1/2 [3]: > det. limit (human); t1/2 [4]: > det. limit (rat)
2 | NCC(=O)Nc1cc(-c2nn3c(=O)cc(N4CCNCC4)nc3s2)ccn1 [compound 14] | – | – | – | – | – | – | – | – | – | – | – | chemical stability as a solution [5]: poor chemical stability
3 | CCc1nn2c(=O)cc(N3CCNCC3)nc2s1 [compound 1] | – | – | – | – | – | – | – | – | – | – | – | IC50 (αIIbβ3 receptor [6]): 4 to 10 µM
4 | NCC(=O)Nc1cncc(-c2nn3c(=O)cc(N4CCNCC4)nc3s2)c1 [compound 13] | < 5 | 100 (15 min.) | 99.5 (60 min.) | 91.7 (120 min.) | 1.145 | 87 | 405 | 4.8 | 137 | 4.2 | unlikely that either agent possesses high oral bioavailability | induction of phospholipidosis (phospholipidosis): No appreciable induction of phospholipidosis; solubility (Long-term solubilization): ≥ 60 mg/mL; change of β3 conformation (αIIbβ3 receptor [7]): nor changes the β3 conformation; priming of the receptor for fibrinogen binding (αIIbβ3 receptor [8]): neither primes the receptor for fibrinogen binding; activity versus the αVβ3 receptor (αVβ3 receptor): does not possess any activity

Reference: article PMC3951875 (Bioorganic & medicinal chemistry letters, 2014)
